How the values were obtained:
Format in all cases: cell-based
[1] = biological target: T1, human TLR-2 (Homo sapiens, UniProt O60603); details: 1 ng/ml, positive stimulation control
T1 construct: expressed in transfected cells; host or cells: HEK293 cells (ATCC), transiently transfected with Fugene6
Source text: These experiments involve transfecting HEK293 cells (American Type Culture Collection, Manassas, Va.) with two plasmid DNAs. The first plasmid, pcDNA3.1/Hygro (Invitrogen), contains the human TLR-2 gene. The second plasmid, pNF-κB-luc (Stratagene, La Jolla, Calif.), encodes the NF-κB gene linked to a luciferase reporter gene whose product can be followed in vitro as a direct measure of NF-κB-activation. To prepare the DNA for transfection into the cells, Fugene6 (Roche, Basel Switzerland) transfecting reagent is diluted 1:6 in OPTI-MEM (Invitrogen, Carlsbad, Calif.) growth medium. Next, 75 ng of pNF-κB-luc and 300 ng of pcDNA3.1/Hygro DNA are added to the diluted Fugene6 and the mixture is incubated at 37° C. for 30 minutes. HEK293 cells at a concentration of 10^6 cells/ml are added to the DNA/Fugene6 mixture. […] The amount of luciferase activity resulting from incubation with the compounds is evaluated by removing the growth medium from the cells and replacing it with 100 μl of RLB lysis solution (Promega, Madison, Wis.). […] The luciferase activity of each cell culture is determined in a 25 μl aliquot of cell lysate in a Victor Luminometer (Perkin Elmer Life Sciences, Shelton, Conn.) according to the manufacturer's instructions. […]

[2] = tested on: human monocyte-derived dendritic cells; assay: Kinetics of uptake by immature dendritic cells, flow cytometry; details: 0° C., cells metabolically inactive
Experimental: In these experiments, human monocyte-derived dendritic cells are prepared as described in Example 5. Dendritic cells are resuspended at 5×10^5 cells/sample and incubated on ice at […] At 0, 2, 10, 20, 30, 40, and 50 minutes after the start of incubation, uptake is stopped by washing the cells with four washes of ice cold flow wash buffer (Example 5). The washed cells are fixed in paraformaldehyde also as described in Example 5. Stained, fixed cells are stored at 4° C. protected from light until analysis using a FC500 flow cytometer (Beckman Coulter, Miami, Fla.).

[3] = tested on: human monocyte-derived iDC; assay: Uptake by immature dendritic cells, confocal microscopy; details: two minutes incubation at 37° C.; labeled Compound 1 50 μg/ml, FITC-dextran 1 mg/ml
Experimental: Briefly, Oregon-green (Molecular Probes, Eugene, Oreg.)-conjugated Lipid II is included in an MtgA polymerization reaction at a ratio of 1:4 with unlabeled Lipid II to produce a 25% Oregon-green labeled polymer. The polymeric material is purified and treated as previously described. […] After incubation, extracellular probe is removed by washing the cells four times in ice cold complete DC medium (Example 5). Washed cells are then incubated at 37° C. and staining is stopped at two-minute intervals by washing in 1% paraformaldehyde fix diluted in flow wash solution (which also contains the metabolic poison sodium azide; protocol described in Example 5). Glass slide samples are prepared at each time interval and sealed with clear nail polish. Samples are stored at −20° C. and protected from light until analysis on a Radiance 2100 confocal microscope (BioRad Laboratories, Hercules, Calif.).

T1 sequence (O60603 21-784): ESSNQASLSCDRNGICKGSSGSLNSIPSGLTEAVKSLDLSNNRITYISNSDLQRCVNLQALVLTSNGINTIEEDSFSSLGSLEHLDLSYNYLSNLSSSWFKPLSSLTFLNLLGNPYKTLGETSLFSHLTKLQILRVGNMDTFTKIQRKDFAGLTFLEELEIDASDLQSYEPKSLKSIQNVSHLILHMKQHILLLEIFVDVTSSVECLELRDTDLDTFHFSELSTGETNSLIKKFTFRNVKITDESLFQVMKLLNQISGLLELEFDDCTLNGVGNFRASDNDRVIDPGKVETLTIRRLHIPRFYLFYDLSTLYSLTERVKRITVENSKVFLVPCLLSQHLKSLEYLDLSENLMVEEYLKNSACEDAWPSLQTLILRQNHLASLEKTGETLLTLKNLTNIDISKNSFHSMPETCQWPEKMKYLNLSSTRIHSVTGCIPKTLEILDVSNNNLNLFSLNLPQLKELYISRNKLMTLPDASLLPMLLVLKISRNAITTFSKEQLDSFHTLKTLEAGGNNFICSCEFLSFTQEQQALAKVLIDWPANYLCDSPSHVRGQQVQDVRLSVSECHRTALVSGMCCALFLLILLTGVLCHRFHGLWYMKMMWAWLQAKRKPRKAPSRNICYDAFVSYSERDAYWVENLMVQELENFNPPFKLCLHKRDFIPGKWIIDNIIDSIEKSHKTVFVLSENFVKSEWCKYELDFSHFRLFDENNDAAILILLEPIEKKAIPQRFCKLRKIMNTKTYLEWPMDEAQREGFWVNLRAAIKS

Substance	increase in luciferase activity compared with unstimulated cultures [1]	uptake by iDCs over time (mean fluorescence intensity) [2]	intracellular localization in iDCs (confocal images) [3]
TNFα	22.5 fold	–	–
FITC-Dextran	–	uptake is inhibited	Localization of polymer in endocytic vacuoles
